Measured values as given in patent US20220089568A1 (Janssen Biotech, Inc., priority 2019, published 2022).

Legend:
human DHODH = target: T1, human DHODH (Homo sapiens, UniProt Q02127); test: DHODH Enzymatic Assay; format: biochemical; conditions: purified human DHODH; DCIP absorbance, end-point mode
T1 construct: purchased Proteros PR-0044
In short: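 Purified human DHODH activity read as absorbance of DCIP, the terminal electron acceptor, in […] pH 7.5, 150 mM NaCl, 0.5 mM EDTA, 0.1% Triton X-100. Reaction started with a substrate mix of 20 mM DHO, 5 mM CoQ6 and 1 mM DCIP in assay buffer.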

MOLM-13 cells = test: MOLM-13 Cellular Assay; format: cell-based; conditions: Homo sapiens, 72 hours exposure, cell viability by CellTiter-Glo
Procedure: The day prior to assay set-up, cells were pelleted, resuspended in fresh media, counted, and cells were plated at 0.4×10^6 cell/mL in a T150 flask. […] Cells were exposed to different concentrations of test compounds at 37° C., 5% CO2 for 72 hours immediately after seeding.

T1 sequence (Q02127 whole entry): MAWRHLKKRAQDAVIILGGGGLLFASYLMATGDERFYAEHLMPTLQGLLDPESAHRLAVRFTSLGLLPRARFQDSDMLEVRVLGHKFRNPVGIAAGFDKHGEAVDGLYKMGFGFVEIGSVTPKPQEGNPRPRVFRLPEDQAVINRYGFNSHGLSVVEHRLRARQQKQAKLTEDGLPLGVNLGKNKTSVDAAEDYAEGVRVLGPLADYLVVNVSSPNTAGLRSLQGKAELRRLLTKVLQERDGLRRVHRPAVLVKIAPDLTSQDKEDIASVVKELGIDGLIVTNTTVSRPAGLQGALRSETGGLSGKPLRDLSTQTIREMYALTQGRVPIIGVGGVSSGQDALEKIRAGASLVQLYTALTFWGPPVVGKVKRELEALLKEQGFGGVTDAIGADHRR

Compound | EC50 (human DHODH) [nM] | EC50 (MOLM-13 cells) [nM]
Cc1ccnc(Cl)c1NC(=O)c1cc(F)c(-n2nc(CO)n(CC(F)F)c2=O)nc1O[C@@H](C)C(F)(F)F [Example 90, N-(2-Chloro-4-methyl-3-pyridyl)-6-[4-(2,2-difluoroethyl)-3-(hydroxymethyl)-5-oxo-1,2,4-triazol-1-yl]-5-fluoro-2-[(1S)-2,2,2-trifluoro-1-methyl-ethoxy]pyridine-3-carboxamide] | 23.1 | 14.9
CCCn1c(CO)nn(-c2nc(O[C@@H](C)C(F)(F)F)c(C(=O)Nc3c(C)n[nH]c3Cl)cc2F)c1=O [Example 91, N-(5-Chloro-3-methyl-1H-pyrazol-4-yl)-5-fluoro-6-[3-(hydroxymethyl)-5-oxo-4-propyl-1,2,4-triazol-1-yl]-2-[(1S)-2,2,2-trifluoro-1-methyl-ethoxy]pyridine-3-carboxamide] | 3.86 | 2.04
CCCn1c(CF)nn(-c2nc(O[C@@H](C)C(F)(F)F)c(C(=O)Nc3c(C)ccnc3Cl)cc2F)c1=O [Example 92, N-(2-Chloro-4-methyl-3-pyridyl)-5-fluoro-6-[3-(fluoromethyl)-5-oxo-4-propyl-1,2,4-triazol-1-yl]-2-[(1S)-2,2,2-trifluoro-1-methyl-ethoxy]pyridine-3-carboxamide] | 0.639 | 0.435
CCn1c(CO)nn(-c2nc(O[C@@H](C)C(F)(F)F)c(C(=O)Nc3c(OC)ccnc3OC)cc2F)c1=O [Example 93, N-(2,4-Dimethoxy-3-pyridyl)-6-[4-ethyl-3-(hydroxymethyl)-5-oxo-1,2,4-triazol-1-yl]-5-fluoro-2-[(1S)-2,2,2-trifluoro-1-methyl-ethoxy]pyridine-3-carboxamide] | 13.8 | 4.14
CCn1c(CO)nn(-c2nc(O[C@@H](C)C(F)(F)F)c(C(=O)Nc3c(OC)ncnc3OC)cc2F)c1=O [Example 94, N-(4,6-Dimethoxypyrimidin-5-yl)-6-[4-ethyl-3-(hydroxymethyl)-5-oxo-1,2,4-triazol-1-yl]-5-fluoro-2-[(1S)-2,2,2-trifluoro-1-methyl-ethoxy]pyridine-3-carboxamide] | > 33 | 48
CCn1c(CO)nn(-c2nc(O[C@@H](C)C(F)(F)F)c(C(=O)Nc3c[nH]nc3C(F)(F)F)cc2F)c1=O [Example 95, 6-[4-Ethyl-3-(hydroxymethyl)-5-oxo-1,2,4-triazol-1-yl]-5-fluoro-2-[(1S)-2,2,2-trifluoro-1-methyl-ethoxy]-N-[3-(trifluoromethyl)-1H-pyrazol-4-yl]pyridine-3-carboxamide] | 2.09 | 1.23
CCn1c(CF)nn(-c2nc(O[C@@H](C)C(F)(F)F)c(C(=O)Nc3c(C)n[nH]c3Cl)cc2F)c1=O [Example 96, N-(5-Chloro-3-methyl-1H-pyrazol-4-yl)-6-[4-ethyl-3-(fluoromethyl)-5-oxo-1,2,4-triazol-1-yl]-5-fluoro-2-[(1S)-2,2,2-trifluoro-1-methyl-ethoxy]pyridine-3-carboxamide] | 0.382 | 0.32
CCn1c(CF)nn(-c2nc(OC(C)C)c(C(=O)Nc3c(C)ccnc3Cl)cc2F)c1=O [Example 97, N-(2-Chloro-4-methyl-3-pyridyl)-6-[4-ethyl-3-(fluoromethyl)-5-oxo-1,2,4-triazol-1-yl]-5-fluoro-2-isopropoxy-pyridine-3-carboxamide] | 1.15 | 1.06
CCn1c(CO)nn(-c2nc(O[C@@H](C)C(F)(F)F)c(C(=O)Nc3cc(OC)ncc3Cl)cc2F)c1=O [Example 98, N-(5-Chloro-2-methoxy-4-pyridyl)-6-[4-ethyl-3-(hydroxymethyl)-5-oxo-1,2,4-triazol-1-yl]-5-fluoro-2-[(1S)-2,2,2-trifluoro-1-methyl-ethoxy]pyridine-3-carboxamide] | 91.4 | 41.6
CCCn1c(CF)nn(-c2nc(O[C@@H](C)C(F)(F)F)c(C(=O)Nc3c(C)n[nH]c3Cl)cc2F)c1=O [Example 99, N-(5-Chloro-3-methyl-1H-pyrazol-4-yl)-5-fluoro-6-[3-(fluoromethyl)-5-oxo-4-propyl-1,2,4-triazol-1-yl]-2-[(1S)-2,2,2-trifluoro-1-methyl-ethoxy]pyridine-3-carboxamide] | 0.975 | 0.38
CCn1c(CO)nn(-c2nc(O[C@@H](C)C(F)(F)F)c(C(=O)Nc3c[nH]nc3C#N)cc2F)c1=O [Example 100, N-(3-Cyano-1H-pyrazol-4-yl)-6-[4-ethyl-3-(hydroxymethyl)-5-oxo-1,2,4-triazol-1-yl]-5-fluoro-2-[(1S)-2,2,2-trifluoro-1-methyl-ethoxy]pyridine-3-carboxamide] | > 100 | 19
Cc1ccnc(Cl)c1NC(=O)c1cc(F)c(-n2nc(CF)n(CCCO)c2=O)nc1O[C@@H](C)C(F)(F)F [Example 101, N-(2-Chloro-4-methyl-3-pyridyl)-5-fluoro-6-[3-(fluoromethyl)-4-(3-hydroxypropyl)-5-oxo-1,2,4-triazol-1-yl]-2-[(1S)-2,2,2-trifluoro-1-methyl-ethoxy]pyridine-3-carboxamide] | 39.4 | 19.4
CCn1c(CO)nn(-c2nc(O[C@@H](C)C(F)(F)F)c(C(=O)Nc3c(Cl)ncc(C)c3C)cc2F)c1=O [Example 102, N-(2-Chloro-4,5-dimethyl-3-pyridyl)-6-[4-ethyl-3-(hydroxymethyl)-5-oxo-1,2,4-triazol-1-yl]-5-fluoro-2-[(1S)-2,2,2-trifluoro-1-methyl-ethoxy]pyridine-3-carboxamide] | 20.1 | 1.39
CCn1c(CO)nn(-c2nc(O[C@@H](C)C(F)(F)F)c(C(=O)Nc3c(OC)cc(C)nc3C)cc2F)c1=O [Example 103, 6-[4-ethyl-3-(hydroxymethyl)-5-oxo-1,2,4-triazol-1-yl]-5-fluoro-N-(4-methoxy-2,6-dimethyl-3-pyridyl)-2-[(1S)-2,2,2-trifluoro-1-methyl-ethoxy]pyridine-3-carboxamide] | > 100 | 17.3
CCn1c(CO)nn(-c2nc(O[C@@H](C)C(F)(F)F)c(C(=O)Nc3nccc(OC)c3Cl)cc2F)c1=O [Example 104, N-(3-Chloro-4-methoxy-2-pyridyl)-6-[4-ethyl-3-(hydroxymethyl)-5-oxo-1,2,4-triazol-1-yl]-5-fluoro-2-[(1S)-2,2,2-trifluoro-1-methyl-ethoxy]pyridine-3-carboxamide] | 6.62 | 7.59
CCOc1ccnc(NC(=O)c2cc(F)c(-n3nc(CO)n(CC)c3=O)nc2O[C@@H](C)C(F)(F)F)c1Cl [Example 105, N-(3-Chloro-4-ethoxy-2-pyridyl)-6-[4-ethyl-3-(hydroxymethyl)-5-oxo-1,2,4-triazol-1-yl]-5-fluoro-2-[(1S)-2,2,2-trifluoro-1-methyl-ethoxy]pyridine-3-carboxamide] | 3.4 | 4.6
CCn1c(CO)nn(-c2nc(O[C@@H](C)C(F)(F)F)c(C(=O)Nc3c(C)cc(OC)nc3Cl)cc2F)c1=O [Example 106, N-(2-Chloro-6-methoxy-4-methyl-3-pyridyl)-6-[4-ethyl-3-(hydroxymethyl)-5-oxo-1,2,4-triazol-1-yl]-5-fluoro-2-[(1S)-2,2,2-trifluoro-1-methyl-ethoxy]pyridine-3-carboxamide] | 2.9 | 0.792
Cc1[nH]nc(Cl)c1NC(=O)c1cc(F)c(-n2nc(CF)n(CCCO)c2=O)nc1O[C@@H](C)C(F)(F)F [Example 107, N-(3-Chloro-5-methyl-1H-pyrazol-4-yl)-5-fluoro-6-[3-(fluoromethyl)-4-(3-hydroxypropyl)-5-oxo-1,2,4-triazol-1-yl]-2-[(1S)-2,2,2-trifluoro-1-methyl-ethoxy]pyridine-3-carboxamide] | 18.1 | 1.5
CCn1c(CF)nn(-c2nc(OC(C)C)c(C(=O)Nc3c(C)n[nH]c3Cl)cc2F)c1=O [Example 108, N-(5-Chloro-3-methyl-1H-pyrazol-4-yl)-6-[4-ethyl-3-(fluoromethyl)-5-oxo-1,2,4-triazol-1-yl]-5-fluoro-2-isopropoxy-pyridine-3-carboxamide] | 0.851 | 0.17
CCn1c(CO)nn(-c2nc(O[C@@H](C)C(F)(F)F)c(C(=O)Nc3ccnnc3OC)cc2F)c1=O [Example 109, 6-[4-Ethyl-3-(hydroxymethyl)-5-oxo-1,2,4-triazol-1-yl]-5-fluoro-N-(3-methoxypyridazin-4-yl)-2-[(1S)-2,2,2-trifluoro-1-methyl-ethoxy]pyridine-3-carboxamide] | > 100 | > 100
CCn1c(CO)nn(-c2nc(O[C@@H](C)C(F)(F)F)c(C(=O)Nc3c(Cl)cnc(OC)c3C)cc2F)c1=O [Example 110, N-(5-Chloro-2-methoxy-3-methyl-4-pyridyl)-6-[4-ethyl-3-(hydroxymethyl)-5-oxo-1,2,4-triazol-1-yl]-5-fluoro-2-[(1S)-2,2,2-trifluoro-1-methyl-ethoxy]pyridine-3-carboxamide] | 0.367 | 0.282
CCn1c(CO)nn(-c2nc(O[C@@H](C)C(F)(F)F)c(C(=O)Nc3c(C)n[nH]c3C(F)(F)F)cc2F)c1=O [Example 111, 6-[4-Ethyl-3-(hydroxymethyl)-5-oxo-1,2,4-triazol-1-yl]-5-fluoro-N-[3-methyl-5-(trifluoromethyl)-1H-pyrazol-4-yl]-2-[(1S)-2,2,2-trifluoro-1-methyl-ethoxy]pyridine-3-carboxamide] | 1.93 | 0.345
CCn1c(CO)nn(-c2nc(O[C@@H](C)C(F)(F)F)c(C(=O)Nc3c(Cl)n[nH]c3C(F)(F)F)cc2F)c1=O [Example 112, N-[3-Chloro-5-(trifluoromethyl)-1H-pyrazol-4-yl]-6-[4-ethyl-3-(hydroxymethyl)-5-oxo-1,2,4-triazol-1-yl]-5-fluoro-2-[(1S)-2,2,2-trifluoro-1-methyl-ethoxy]pyridine-3-carboxamide] | 4.12 | 0.303
